Reference: ChEMBL document CHEMBL2424568, “Phenylpyrazolo[1,5-a]quinazolin-5(4H)-one: a suitable scaffold for the development of noncamptothecin topoisomerase I (Top1) inhibitors” (J Med Chem, 2013)
Activity calls are given as the source filed them. The calls are words filed in the database; no cut-off is given here.

The compounds below were run against T1, DNA topoisomerase 1 (Homo sapiens) (UniProt P11387) (assay: Inhibition of recombinant DNA topoisomerase 1 (unknown origin) assessed as inhibition of topoisomerase 1-mediated DNA cleavage at 1 to 100 uM after 20 mins by SDS-PAGE analysis relative to control).
T1 sequence (whole entry): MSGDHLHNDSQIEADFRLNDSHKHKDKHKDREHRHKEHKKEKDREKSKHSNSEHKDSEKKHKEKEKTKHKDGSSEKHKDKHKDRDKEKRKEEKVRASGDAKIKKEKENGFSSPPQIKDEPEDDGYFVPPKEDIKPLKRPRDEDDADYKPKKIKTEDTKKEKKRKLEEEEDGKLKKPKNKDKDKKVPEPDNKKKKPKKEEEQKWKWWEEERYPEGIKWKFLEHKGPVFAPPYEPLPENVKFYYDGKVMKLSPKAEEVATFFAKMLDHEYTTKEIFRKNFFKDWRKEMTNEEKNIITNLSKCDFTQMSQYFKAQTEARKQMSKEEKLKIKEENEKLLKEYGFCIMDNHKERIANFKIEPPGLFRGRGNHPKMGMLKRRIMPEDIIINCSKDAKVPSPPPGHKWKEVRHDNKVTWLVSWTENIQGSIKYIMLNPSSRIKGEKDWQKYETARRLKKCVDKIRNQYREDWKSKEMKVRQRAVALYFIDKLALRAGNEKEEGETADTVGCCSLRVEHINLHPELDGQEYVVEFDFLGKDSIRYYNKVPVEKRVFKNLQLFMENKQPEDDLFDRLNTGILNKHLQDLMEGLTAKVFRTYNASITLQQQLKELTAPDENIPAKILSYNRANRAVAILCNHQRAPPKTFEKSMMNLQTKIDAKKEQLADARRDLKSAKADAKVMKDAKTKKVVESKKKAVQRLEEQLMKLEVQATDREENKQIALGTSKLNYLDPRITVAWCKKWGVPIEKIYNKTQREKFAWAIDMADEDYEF

Row | Structure (SMILES) | Top1 cleavage inhibition (active/inactive)
1 | CCN(CC)CCNc1nc2c(-c3ccc(C(F)(F)F)cc3)cnn2c2ccccc12 | Active
2 | CCN(CC)CCNc1nc2cc(-c3ccccc3)nn2c2ccccc12 | inactive
3 | CCN(CC)CCNc1nc2c(-c3ccc(OC)cc3)cnn2c2ccccc12 | Active
4 | FC(F)(F)c1ccc(-c2cnn3c2nc(NCCCc2ncc[nH]2)c2ccccc23)cc1 | inactive
5 | CN(C)CCNc1nc2c(-c3ccc(C(F)(F)F)cc3)cnn2c2ccccc12 | Active
6 | CN(C)CCn1c(=O)c2ccccc2n2nc(-c3ccccc3)cc12 | Active
7 | O=c1c2ccccc2n2nc(-c3ccccc3)cc2n1CCCc1ncc[nH]1 | inactive
8 | Clc1ccc(-c2cnn3c2nc(NCCCc2ncc[nH]2)c2ccccc23)cc1 | inactive
9 | COc1ccc(-c2cnn3c2nc(NCCN(C)C)c2ccccc23)cc1 | Active
10 | CCN(CC)CCOc1nc2c(-c3ccc(C(F)(F)F)cc3)cnn2c2ccccc12 | inactive
11 | CCN(CC)CCNc1nc2c(-c3ccc(Cl)cc3)cnn2c2ccccc12 | Active
12 | c1ccc(-c2cc3nc(NCCCc4ncc[nH]4)c4ccccc4n3n2)cc1 | inactive
13 | COc1ccc(-c2cnn3c2nc(NCCCc2ncc[nH]2)c2ccccc23)cc1 | inactive
14 | CN(C)CCNc1nc2c(-c3ccc(Cl)cc3)cnn2c2ccccc12 | Active
15 | CN(C)CCCNc1nc2c(-c3ccc(C(F)(F)F)cc3)cnn2c2ccccc12 | Active

Second part, the compound after the results:

Row | Top1 cleavage inhibition (active/inactive) | Structure (SMILES)
16 | inactive | CN(C)CCCn1c(=O)c2ccccc2n2nc(-c3ccccc3)cc12
17 | Active | COc1ccc(-c2cnn3c2nc(NCCCN(C)C)c2ccccc23)cc1
18 | Active | c1ccc(-c2cnn3c2nc(NCCCc2ncc[nH]2)c2ccccc23)cc1
19 | Active | CN(C)CCOc1nc2c(-c3ccccc3)cnn2c2ccccc12
20 | Active | CN(C)CCOc1nc2c(-c3ccc(Cl)cc3)cnn2c2ccccc12
21 | Active | CN(C)CCOc1nc2c(-c3ccc(C(F)(F)F)cc3)cnn2c2ccccc12
22 | Active | CN(C)CCCNc1nc2c(-c3ccc(Cl)cc3)cnn2c2ccccc12
23 | Active | CCN(CC)CCOc1nc2c(-c3ccc(Cl)cc3)cnn2c2ccccc12
24 | Active | CN(C)CCCOc1nc2c(-c3ccccc3)cnn2c2ccccc12
25 | Active | CCN(CC)CCOc1nc2c(-c3ccc(OC)cc3)cnn2c2ccccc12
26 | Active | COc1ccc(-c2cnn3c2nc(OCCN(C)C)c2ccccc23)cc1
27 | Active | CCN(CC)CCOc1nc2cc(-c3ccccc3)nn2c2ccccc12
28 | Active | CN(C)CCCOc1nc2c(-c3ccc(Cl)cc3)cnn2c2ccccc12
29 | inactive | CN(C)CCCOc1nc2cc(-c3ccccc3)nn2c2ccccc12
30 | inactive | CN(C)CCCOc1nc2c(-c3ccc(C(F)(F)F)cc3)cnn2c2ccccc12
31 | Active | CCN(CC)CCNc1nc2c(-c3ccccc3)cnn2c2ccccc12
32 | Active | COc1ccc(-c2cnn3c2nc(OCCCN(C)C)c2ccccc23)cc1
33 | Active | CN(C)CCOc1nc2cc(-c3ccccc3)nn2c2ccccc12
34 | Active | CCN(CC)CCOc1nc2c(-c3ccccc3)cnn2c2ccccc12

The compounds below were run against T1, DNA topoisomerase 1 (Homo sapiens) (assay: Inhibition of recombinant DNA topoisomerase 1 (unknown origin) assessed as inhibition of topoisomerase 1-mediated DNA cleavage at 1 uM after 20 mins by SDS-PAGE analysis).

Row | Structure (SMILES) | Top1 DNA cleavage inhibition (active/not active)
35 | COc1cc2c3c(n(CCCNCCO)c(=O)c2cc1OC)-c1cc2c(cc1C3=O)OCO2 | Active
36 | Clc1ccc(-c2cnn3c2nc(NCCCc2ncc[nH]2)c2ccccc23)cc1 | inactive

Now from value to compound:

Row | Top1 DNA cleavage inhibition (active/not active) | Structure (SMILES)
37 | inactive | CN(C)CCCn1c(=O)c2ccccc2n2nc(-c3ccccc3)cc12
38 | inactive | CCN(CC)CCOc1nc2c(-c3ccc(Cl)cc3)cnn2c2ccccc12
39 | inactive | CN(C)CCCOc1nc2c(-c3ccc(C(F)(F)F)cc3)cnn2c2ccccc12
